# Measured values: US8153818B2, “Triazolyl phenyl benzenesulfonamides” (ChemoCentryx, Inc., priority 2006, dated 2012)
# Target: T1, CCR9 (Homo sapiens, UniProt P51686)
# T1 construct: chemokine expressing cells (such as THP-1 cells for CCR2 assay or MOLT-4 cells for CCR9 assay); host or cells: MOLT-4
# T1 sequence (P51686 1-369): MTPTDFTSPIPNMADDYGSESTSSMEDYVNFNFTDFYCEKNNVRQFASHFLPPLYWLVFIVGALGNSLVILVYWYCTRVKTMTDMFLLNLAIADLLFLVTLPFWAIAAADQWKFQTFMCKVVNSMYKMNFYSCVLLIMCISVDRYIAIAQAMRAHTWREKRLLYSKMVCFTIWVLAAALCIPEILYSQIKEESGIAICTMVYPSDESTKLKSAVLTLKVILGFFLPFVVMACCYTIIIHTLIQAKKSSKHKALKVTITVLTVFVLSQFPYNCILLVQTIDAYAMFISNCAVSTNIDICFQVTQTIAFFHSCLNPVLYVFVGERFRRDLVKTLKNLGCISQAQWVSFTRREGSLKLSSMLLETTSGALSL
# Experiment: CCR9 activity in one of the chemotaxis, binding or calcium mobilization assays
# Format: cell-based
# Conditions: assay not specified per compound
# Outline: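 Chemotaxis: THP-1 cells (CCR2, 0.1 nM MCP-1, 90 min) or MOLT-4 cells (CCR9, 50 nM TECK, 150 min) preincubated with compound 15 min RT, migration at 37 °C through 5-μm membrane, CyQUANT read; IC50 by nonlinear regression. Calcium flux: Fluo-4-loaded cells, 0.1 nM MCP-1 or 25 nM TECK. Binding: THP-1, ~50 pM [125I]MCP-1, 3 h, 4 °C.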
row,Compound,IC50
1,"COCc1nnc(-c2cc(Cl)ccc2NS(=O)(=O)c2ccc(C(C)(C)C)cc2)n1C(C)C [Compound 96, 4-tert-butyl-N-(4-chloro-2-(4-isopropyl-5-(methoxymethyl)-4H-1,2,4-triazol-3-yl)phenyl)benzenesulfonamide]",< 1 µM
2,"Cn1c(-c2ccccn2)nnc1-c1cc(Cl)ccc1NS(=O)(=O)c1ccc(C(C)(C)C)cc1 [Compound 97, 4-tert-butyl-N-(4-chloro-2-(4-methyl-5-(pyridin-2-yl)-4H-1,2,4-triazol-3-yl)phenyl)benzenesulfonamide]",< 1 µM
3,"CC(C)n1c(CN(C)C)nnc1-c1cc(Cl)ccc1NS(=O)(=O)c1ccc(C(C)(C)C)cc1 [Compound 98, 4-tert-butyl-N-(4-chloro-2-(5-((dimethylamino)methyl)-4-isopropyl-4H-1,2,4-triazol-3-yl)phenyl)benzenesulfonamide]",< 1 µM
4,Cc1nnc(-c2cc(Cl)ccc2NS(=O)(=O)c2ccc(C(C)(C)C)cc2)n1C1CCNC1 (stereo not drawn) [Compound 99],< 1 µM
5,"Cc1nnc(-c2cc(F)c(F)cc2NS(=O)(=O)c2ccc(C(C)(C)C)cc2)n1C [Compound 100, 4-tert-butyl-N-(2-(4,5-dimethyl-4H-1,2,4-triazol-3-yl)-4,5-difluorophenyl)benzenesulfonamide]",< 1 µM
6,Cc1nnc(-c2cc(Cl)ccc2NS(=O)(=O)c2ccc(C(C)(C)C)cc2)n1C1CCOC1 (stereo not drawn) [Compound 101],< 1 µM
7,Cn1c(-c2cc(Cl)ccc2NS(=O)(=O)c2ccc(C(C)(C)C)cc2)nnc1C1CCCO1 (stereo not drawn) [Compound 102],< 1 µM
8,"CC(C)OCc1nnc(-c2cc(Cl)ccc2NS(=O)(=O)c2ccc(C(C)(C)C)cc2)n1C [Compound 103, 4-tert-butyl-N-(4-chloro-2-(5-(isopropoxymethyl)-4-methyl-4H-1,2,4-triazol-3-yl)phenyl)benzenesulfonamide]",< 1 µM
9,CC(C)(C)c1ccc(S(=O)(=O)Nc2ccc(Cl)cc2-c2nncn2[C@H]2CCCOC2)cc1 [Compound 104],< 1 µM
10,"CCc1nnc(-c2cc(Cl)ccc2NS(=O)(=O)c2ccc(C(C)(C)C)cc2)n1C [Compound 105, 4-tert-butyl-N-(4-chloro-2-(5-ethyl-4-methyl-4H-1,2,4-triazol-3-yl)phenyl)benzenesulfonamide]",< 1 µM
11,Cc1nnc(-c2cc(Cl)c(F)cc2NS(=O)(=O)c2ccc(C(C)(C)C)cc2)n1[C@H]1CCNC1 [Compound 106],< 1 µM
12,"COCc1nnc(-c2cc(Cl)c(F)cc2NS(=O)(=O)c2ccc(C(C)(C)C)cc2)n1C [Compound 107, 4-tert-butyl-N-(4-chloro-5-fluoro-2-(5-(methoxymethyl)-4-methyl-4H-1,2,4-triazol-3-yl)phenyl)benzenesulfonamide]",< 1 µM
13,CC(C)(C)c1ccc(S(=O)(=O)Nc2cc(F)c(Cl)cc2-c2nncn2C2CCCOC2)cc1 (stereo not drawn) [Compound 108],< 1 µM
14,CC(C)(C)c1ccc(S(=O)(=O)Nc2cc(F)c(Cl)cc2-c2nncn2[C@H]2CCNC2)cc1 [Compound 109],< 1 µM
15,"CCc1nnc(-c2cc(Cl)c(F)cc2NS(=O)(=O)c2ccc(C(C)(C)C)cc2)n1C [Compound 110, 4-tert-butyl-N-(4-chloro-2-(5-ethyl-4-methyl-4H-1,2,4-triazol-3-yl)-5-fluorophenyl)benzenesulfonamide]",< 1 µM
16,Cn1c(-c2cocn2)nnc1-c1cc(Cl)c(F)cc1NS(=O)(=O)c1ccc(C(C)(C)C)cc1 [Compound 111],< 1 µM
17,CC(C)(C)c1ccc(S(=O)(=O)Nc2cc(F)c(Cl)cc2-c2nncn2[C@H]2CCCNC2)cc1 [Compound 112],< 1 µM
18,CC(C)(C)c1ccc(S(=O)(=O)Nc2ccc(Cl)cc2-c2nncn2[C@H]2CCCNC2)cc1 [Compound 113],< 1 µM
19,Cc1nnc(-c2cc(Cl)ccc2NS(=O)(=O)c2ccc(C(C)(C)C)cc2)n1[C@H]1CCCNC1 [Compound 114],< 1 µM
20,Cn1c(-c2cc(Cl)c(F)cc2NS(=O)(=O)c2ccc(C(C)(C)C)cc2)nnc1C1CCOC1 (stereo not drawn) [Compound 115],< 1 µM
21,Cn1c(-c2cc(Cl)c(F)cc2NS(=O)(=O)c2ccc(C(C)(C)C)cc2)nnc1C1CCOCC1 [Compound 116],< 1 µM

row,Compound,IC50
1,Cc1ocnc1-c1nnc(-c2cc(Cl)ccc2NS(=O)(=O)c2ccc(C(C)(C)C)cc2)n1C [Compound 117],< 1 µM
2,"CC(C)c1nnc(-c2cc(Cl)ccc2NS(=O)(=O)c2ccc(C(C)(C)C)cc2)n1[C@H]1CCNC1 [Compound 118, (S)-4-tert-butyl-N-(4-chloro-2-(5-isopropyl-4-(pyrrolidin-3-yl)-4H-1,2,4-triazol-3-yl)phenyl)benzenesulfonamide]",< 1 µM
3,"CCc1nnc(-c2cc(Cl)ccc2NS(=O)(=O)c2ccc(C(C)(C)C)cc2)n1[C@H]1CCNC1 [Compound 119, (S)-4-tert-butyl-N-(4-chloro-2-(5-ethyl-4-(pyrrolidin-3-yl)-4H-1,2,4-triazol-3-yl)phenyl)benzenesulfonamide]",< 1 µM
4,CC(C)(C)c1ccc(S(=O)(=O)Nc2cc(F)c(Cl)cc2-c2nncn2C2CCOC2)cc1 (stereo not drawn) [Compound 120],< 1 µM
5,Cn1c(CN2CCCC2)nnc1-c1cc(Cl)c(F)cc1NS(=O)(=O)c1ccc(C(C)(C)C)cc1 [Compound 121],< 1 µM
6,Cn1c(CN2CCC2)nnc1-c1cc(Cl)c(F)cc1NS(=O)(=O)c1ccc(C(C)(C)C)cc1 [Compound 122],< 1 µM
7,"Cn1c(CO)nnc1-c1cc(Cl)c(F)cc1NS(=O)(=O)c1ccc(C(C)(C)C)cc1 [Compound 123, 4-tert-butyl-N-(4-chloro-5-fluoro-2-(5-(hydroxymethyl)-4-methyl-4H-1,2,4-triazol-3-yl)phenyl)benzenesulfonamide]",< 1 µM
8,CC(=O)N1CCC(n2c(C)nnc2-c2cc(Cl)ccc2NS(=O)(=O)c2ccc(C(C)(C)C)cc2)C1 (stereo not drawn) [Compound 124],< 1 µM
9,"Cc1nnc(-c2cc(Cl)ccc2NS(=O)(=O)c2ccc(C(C)(C)C)cc2)n1CCN(C)C [Compound 125, 4-tert-butyl-N-(4-chloro-2-(4-(2-(dimethylamino)ethyl)-5-methyl-4H-1,2,4-triazol-3-yl)phenyl)benzenesulfonamide]",< 1 µM
10,"CNCCn1c(C)nnc1-c1cc(Cl)ccc1NS(=O)(=O)c1ccc(C(C)(C)C)cc1 [Compound 126, 4-tert-butyl-N-(4-chloro-2-(5-methyl-4-(2-(methylamino)ethyl)-4H-1,2,4-triazol-3-yl)phenyl)benzenesulfonamide]",< 1 µM
11,Cc1nnc(-c2cc(Cl)ccc2NS(=O)(=O)c2ccc(C(C)(C)C)cc2)n1[C@H]1CCNC1 [Compound 127],< 1 µM
12,"CCc1nnc(-c2cc(C#N)ccc2NS(=O)(=O)c2ccc(C(C)(C)C)cc2)n1C [Compound 128, 4-tert-butyl-N-(4-cyano-2-(5-ethyl-4-methyl-4H-1,2,4-triazol-3-yl)phenyl)benzenesulfonamide]",< 1 µM
13,"CCc1nnc(-c2cc(C(N)=O)ccc2NS(=O)(=O)c2ccc(C(C)(C)C)cc2)n1C [Compound 129, 4-(4-tert-butylphenylsulfonamido)-3-(5-ethyl-4-methyl-4H-1,2,4-triazol-3-yl)benzamide]",< 1 µM
14,"CCc1nnc(-c2cc(C(=O)O)ccc2NS(=O)(=O)c2ccc(C(C)(C)C)cc2)n1C [Compound 130, 4-(4-tert-butylphenylsulfonamido)-3-(5-ethyl-4-methyl-4H-1,2,4-triazol-3-yl)benzoic acid]",< 1 µM
15,CC(C)(C)c1ccc(S(=O)(=O)Nc2ccc(Cl)cc2-c2nncn2C2CNC2)cc1 [Compound 131],< 1 µM
16,"CNCc1nnc(-c2cc(Cl)ccc2NS(=O)(=O)c2ccc(C(C)(C)C)cc2)n1C [Compound 132, 4-tert-butyl-N-(4-chloro-2-(4-methyl-5-((methylamino)methyl)-4H-1,2,4-triazol-3-yl)phenyl)benzenesulfonamide]",< 1 µM
17,"CCc1nnc(-c2cc(C(=O)OC)ccc2NS(=O)(=O)c2ccc(C(C)(C)C)cc2)n1C [Compound 133, methyl 4-(4-tert-butylphenylsulfonamido)-3-(5-ethyl-4-methyl-4H-1,2,4-triazol-3-yl)benzoate]",< 1 µM
18,"CC(C)Oc1ccc(S(=O)(=O)Nc2ccc(Cl)cc2-c2nncn2[C@H]2CCNC2)cc1 [Compound 134, (S)—N-(4-chloro-2-(4-(pyrrolidin-3-yl)-4H-1,2,4-triazol-3-yl)phenyl)-4-isopropoxybenzenesulfonamide]",< 1 µM
19,"Cc1nnc(-c2cc(Cl)ccc2NS(=O)(=O)c2ccc(N3CCOCC3)c(F)c2)n1C [Compound 135, N-(4-chloro-2-(4,5-dimethyl-4H-1,2,4-triazol-3-yl)phenyl)-3-fluoro-4-morpholinobenzenesulfonamide]",< 1 µM
20,"COCCn1cnnc1-c1cc(Cl)c(F)cc1NS(=O)(=O)c1ccc(C(C)(C)C)cc1 [Compound 136, 4-tert-butyl-N-(4-chloro-5-fluoro-2-(4-(2-methoxyethyl)-4H-1,2,4-triazol-3-yl)phenyl)benzenesulfonamide]",< 1 µM
21,"Cn1c(CCO)nnc1-c1cc(Cl)c(F)cc1NS(=O)(=O)c1ccc(C(C)(C)C)cc1 [Compound 137, 4-tert-butyl-N-(4-chloro-5-fluoro-2-(5-(2-hydroxyethyl)-4-methyl-4H-1,2,4-triazol-3-yl)phenyl)benzenesulfonamide]",< 1 µM
